One experiment concerns the target KRAS G12C (Homo sapiens (Human), UniProt P01116, C118A/G12C). Kind of experiment: 2 h coupled exchange assay. The format is biochemical. How it is done:
The term “2 h coupled exchange assay” or “20 h coupled exchange assay” as used herein refers to the assay described in the Section entitled “BIOLOGICAL EVALUATION.”

Experiment [1] relates to MIA PaCa-2 (human pancreatic carcinoma) cells. Nature of the experiment: Cell Viability Assay (CellTiter-Glo), MIA PaCa-2. The experiment is classed as cell-based. The method, then:
Serially-diluted compound or DMSO was added to the cells, and plates were incubated at 37° C., 5% CO2 for 72 h. Cell viability was measured using a CellTiter-Glo® Luminescent Cell Viability Assay kit (Promega) according to the manufacturer's protocol. The luminescence signal of treated samples was normalized to DMSO control, and data were analyzed using a 4-parameter logistic model to calculate IC50 values.
(In general: In ATP-based viability assays light output follows the ATP content of the culture.)

For experiment [2], the system named is A549 (human lung carcinoma) cells. Kind of experiment: Cell Viability Assay (CellTiter-Glo), A549. The experiment is classed as cell-based. The essentials: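 After a 72 h exposure to serial compound dilutions at 37° C, luminescent ATP content was measured with CellTiter-Glo. The cells were A549 or MIA PaCa-2, seeded at 1.67E+04 cells/mL in RPMI 1640 with 10% serum. Signals were normalized to DMSO controls and IC50 fitted with a 4-parameter logistic model.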

The mark [3] stands for this setting: Avg 2 h Coupled exchange IC50, 2 h compound pre-incubation, SOS-mediated nucleotide exchange.
The mark [4] stands for this setting: Avg 2 h Coupled exchange IC50, 2 h compound pre-incubation.

Like-named read-outs stand apart in the source and are kept apart here.

This passage reports IC50 results from patent US20240059703A1 (AMGEN INC., priority 2021, published 2024).

With `C=CC(=O)N1CC2(CCN(c3nc4c(c(-c5c(C)ccc6[nH]ncc56)c3C#N)CC3(CC3)C4)C2)C1` [Example 13-14, 4-(5-methyl-1H-indazol-4-yl)-2-(2-(2-propenoyl)-2,6-diazaspiro[3.4]octan-6-yl)-5,7-dihydrospiro[cyclopenta[b]pyridine-6,1′-cyclopropane]-3-carbonitrile], the IC50 (in general, the midpoint of a concentration-inhibition curve) was 34 nM at KRAS G12C (setting [3]); 517 nM in experiment [1] (Homo sapiens, MIA PaCa-2, 72 h); greater than 5000 nM in experiment [2] (Homo sapiens, A549, 72 h).
Take `C=CC(=O)N1CC2(CCN(c3nc4c(c(-c5c(C)ccc6cnn(C)c56)c3C)CCC(C)(C)C4)C2)C1` (single isomer, unassigned) [Example 2-21, (P)-1-(6-(4-(1,6-dimethyl-1H-indazol-7-yl)-3,7,7-trimethyl-5,6,7,8-tetrahydro-2-quinolinyl)-2,6-diazaspiro[3.4]octan-2-yl)-2-propen-1-one]: the concentration for half-maximal inhibition (IC50) on KRAS G12C (setting [3]) was 161 nM; in experiment [1] (Homo sapiens, MIA PaCa-2, 72 h), 441 nM; in experiment [2] (Homo sapiens, A549, 72 h) it was greater than 5000 nM.
For the compound `C=CC(=O)N1CC2(CCN(c3nc4c(c(-c5cc(O)ccc5F)c3C#N)C[C@H]3C[C@@H]4C3(C)C)C2)C1` [Example 2-66, (1R,9R)-6-(2-fluoro-5-hydroxyphenyl)-10,10-dimethyl-4-(2-(2-propenoyl)-2,6-diazaspiro[3.4]octan-6-yl)-3-azatricyclo[7.1.1.0^2,7]undeca-2,4,6-triene-5-carbonitrile], the IC50 against KRAS G12C (setting [3]) was 89 nM; in experiment [1] (Homo sapiens, MIA PaCa-2, 72 h) it was 735 nM; in experiment [2] (Homo sapiens, A549, 72 h) it was greater than 5000 nM.
On to `C=CC(=O)N1CC2(CCN(c3nc4c(c(-c5ccccc5F)c3C#N)CCN(CCCOC)C4)C2)C1` [Example 21-39, 4-(2-fluorophenyl)-7-(3-methoxypropyl)-2-(2-(2-propenoyl)-2,6-diazaspiro[3.4]octan-6-yl)-5,6,7,8-tetrahydro-1,7-naphthyridine-3-carbonitrile], for which the concentration for half-maximal inhibition (IC50) against KRAS G12C (setting [4]) turned out to be 1120 nM; in experiment [1] (Homo sapiens, MIA PaCa-2, 72 h), 7180 nM; in experiment [2] (Homo sapiens, A549, 72 h) it was 17600 nM.
Take `C=CC(=O)N1CC2(CCN(c3nc4c(c(-c5ccc(F)cc5Cl)c3C#N)CO[C@H](c3scnc3C)C4)C2)C1` [Example 23-28, (7S)-4-(2-chloro-4-fluorophenyl)-7-(4-methyl-1,3-thiazol-5-yl)-2-(2-(2-propenoyl)-2,6-diazaspiro[3.4]octan-6-yl)-7,8-dihydro-5H-pyrano[4,3-b]pyridine-3-carbonitrile]: the half-inhibitory concentration (IC50) against KRAS G12C (setting [4]) was determined as 415 nM; in experiment [1] (Homo sapiens, MIA PaCa-2, 72 h), 1400 nM; in experiment [2] (Homo sapiens, A549, 72 h), 5680 nM.
For `C=CC(=O)N1CC2(CCN(c3nc4c(c(-c5cc(O)cc6ccccc56)c3C)CCN(C(C)C)C4)C2)C1` [Example 18-3, 1-(6-(4-(3-hydroxy-1-naphthalenyl)-3-methyl-7-(2-propanyl)-5,6,7,8-tetrahydro-1,7-naphthyridin-2-yl)-2,6-diazaspiro[3.4]octan-2-yl)-2-propen-1-one] the same measures were 229 nM, 137 nM and greater than 5000 nM.
Consider `C=CC(=O)N1CC2(CCN(c3nc4c(c(-c5cc(O)cc6ccccc56)c3C#N)[C@H]3CC[C@@H]4C3)C2)C1` (single isomer, unassigned) [Example 2-40], for which the values for the half-maximal inhibitory concentration (IC50) (against KRAS G12C (setting [3]); in experiment [1] (72 h); in experiment [2] (72 h)) were 46 nM, 529 nM and 2000 nM, respectively.
Take `C=CC(=O)N1CC2(CCN(c3nc4c(c(-c5c(C)ccc6cnn(C)c56)c3C)CCN(C3(C)COC3)C4)C2)C1` (atropisomer, axis not shown; (M)) [Example 36-2, (M)-1-(6-(4-(1,6-dimethyl-H-indazol-7-yl)-3-methyl-7-(3-methyl-3-oxetanyl)-5,6,7,8-tetrahydro-1,7-naphthyridin-2-yl)-2,6-diazaspiro[3.4]octan-2-yl)-2-propen-1-one]: the half-maximal inhibitory concentration (IC50) at KRAS G12C (read-out: Avg 2 h Coupled exchange IC50, 2 h compound pre-incubation) was determined as 87 nM; in experiment [1] (72 h) it was 28 nM; in experiment [2] (72 h) it was 25000 nM.
Consider `C=CC(=O)N1CC2(CCN(c3nc4cc(-c5scnc5C)ccc4c(-c4ccccc4C)c3C#N)C2)C1` (single isomer, unassigned) [Example 19-12, (M)-4-(2-methylphenyl)-7-(4-methyl-1,3-thiazol-5-yl)-2-(2-(2-propenoyl)-2,6-diazaspiro[3.4]octan-6-yl)-3-quinolinecarbonitrile], for which the IC50 against KRAS G12C (setting [4]) came to 74 nM; in experiment [1] (72 h), 1400 nM; in experiment [2] (72 h) it was 3790 nM.
For the compound `C=CC(=O)N1CC2(CCN(c3cc4c(c(-c5c(C)c(Cl)cc6cnn(C)c56)c3Cl)OCCC4)C2)C1` [Example 2-110, 1-(6-(7-chloro-8-(5-chloro-1,6-dimethyl-1H-indazol-7-yl)-3,4-dihydro-2H-chromen-6-yl)-2,6-diazaspiro[3.4]octan-2-yl)-2-propen-1-one], the IC50 is 53 nM at KRAS G12C (setting [3]); 20 nM in experiment [1] (Homo sapiens, MIA PaCa-2, 72 h); greater than 5000 nM in experiment [2] (Homo sapiens, A549, 72 h).
Take “7,7-dimethyl-4-(5-methyl-1H-indazol-4-yl)-2-(2-((^2H3)-2-propenoyl)-2,6-diazaspiro[3.4]octan-6-yl)-5,6,7,8-tetrahydro-3-quinolinecarbonitrile [Example 13-1]”: the IC50 was 36 nM on KRAS G12C (read-out: Avg 2 h Coupled exchange IC50, 2 h compound pre-incubation, SOS-mediated nucleotide exchange); 65 nM in experiment [1] (72 h); 4890 nM in experiment [2] (72 h).
For the compound `C=CC(=O)N1CC2(CCN(c3nc4cc(-c5scnc5C)cnc4c(-c4ccccc4Cl)c3C#N)C2)C1` (single isomer, unassigned) [Example 20-8, (M)-4-(2-chlorophenyl)-7-(4-methyl-1,3-thiazol-5-yl)-2-(2-(2-propenoyl)-2,6-diazaspiro[3.4]octan-6-yl)-1,5-naphthyridine-3-carbonitrile], the IC50 on KRAS G12C (setting [4]) is 139 nM; in experiment [1] (72 h), 974 nM; in experiment [2] (Homo sapiens, A549, 72 h), greater than 5000 nM.
Regarding `C=CC(=O)N1CC2(CCN(c3nc4c(c(-c5ccccc5F)c3C#N)CC[C@](C)(c3scnc3C)C4)C2)C1` [Example 23-12, (7S)-4-(2-fluorophenyl)-7-methyl-7-(4-methyl-1,3-thiazol-5-yl)-2-(2-(2-propenoyl)-2,6-diazaspiro[3.4]octan-6-yl)-5,6,7,8-tetrahydro-3-quinolinecarbonitrile], the IC50 against KRAS G12C (setting [4]) amounted to 108 nM; in experiment [1] (Homo sapiens, MIA PaCa-2, 72 h), 754 nM; in experiment [2] (Homo sapiens, A549, 72 h), 4070 nM.
As for `C=CC(=O)N1CC2(CCN(c3cc4c(c(-c5cc(O)cc6ccccc56)c3C#N)OCCC4)C2)C1` [Example 2-52, 8-(3-hydroxy-1-naphthalenyl)-6-(2-(2-propenoyl)-2,6-diazaspiro[3.4]octan-6-yl)-3,4-dihydro-2H-chromene-7-carbonitrile], the IC50 at KRAS G12C (setting [3]) is 26 nM; in experiment [1] (Homo sapiens, MIA PaCa-2, 72 h), 61 nM; in experiment [2] (Homo sapiens, A549, 72 h) it was greater than 5000 nM.
As for `C=CC(=O)N1CC2(CCN(c3nc4c(c(-c5cc(O)ccc5F)c3C#N)CC3CCC4N3C(C)C)C2)C1` (stereo not drawn) [Example 21-8], the 50% inhibitory concentration (IC50) against KRAS G12C (setting [4]) was 933 nM; in experiment [1] (Homo sapiens, MIA PaCa-2, 72 h) it was 5560 nM; in experiment [2] (Homo sapiens, A549, 72 h) it was greater than 25000 nM.
Take `C=CC(=O)N1CC2(CCN(c3nc4c(c(-c5cc(O)c(F)c6ccccc56)c3C#N)CC[C@@H]3C[C@H]43)C2)C1` (single isomer, unassigned) [Example 13-76]: the IC50 at KRAS G12C (setting [3]) came out at 40 nM; in experiment [1] (72 h) it was 1190 nM; in experiment [2] (72 h), 3260 nM.
As to `C=CC(=O)N1CC2(CCN(c3nc4c(c(-c5ccc(F)cc5F)c3C#N)CCN(c3scnc3C)C4)[C@@H]2C)C1` [Example 21-17, 4-(2,4-difluorophenyl)-2-((5R)-5-methyl-2-(2-propenoyl)-2,6-diazaspiro[3.4]octan-6-yl)-7-(4-methyl-1,3-thiazol-5-yl)-5,6,7,8-tetrahydro-1,7-naphthyridine-3-carbonitrile], the IC50 worked out at 136 nM at KRAS G12C (setting [4]); 337 nM in experiment [1] (Homo sapiens, MIA PaCa-2, 72 h); 9840 nM in experiment [2] (Homo sapiens, A549, 72 h).
Take `C=CC(=O)N1CC2(CCN(c3nc4c(c(-c5cc(O)cc(C)c5Cl)c3C)COC(C)(C)C4)C2)C1` [Example 12-1, 1-(6-(4-(2-chloro-5-hydroxy-3-methylphenyl)-3,7,7-trimethyl-7,8-dihydro-5H-pyrano[4,3-b]pyridin-2-yl)-2,6-diazaspiro[3.4]octan-2-yl)prop-2-en-1-one]: the IC50 at KRAS G12C (setting [3]) is 94 nM; in experiment [1] (Homo sapiens, MIA PaCa-2, 72 h), 88 nM; in experiment [2] (Homo sapiens, A549, 72 h), greater than 5000 nM.
For `C=CC(=O)N1CC2(CCN(c3nc4ccccc4c(-c4c(C)ccc5cn[nH]c45)c3C#N)C2)C1` [Example 2-2, 4-(6-methyl-1H-indazol-7-yl)-2-(2-(2-propenoyl)-2,6-diazaspiro[3.4]octan-6-yl)-3-quinolinecarbonitrile] the same measures were 694 nM, 1730 nM and 6250 nM.
Take `C=CC(=O)N1CC2(CCN(c3nc4cc(OC)ccc4c(-c4c(C)ccc5cn[nH]c45)c3C)C2)C1` [Example 2-49, 1-(6-(7-methoxy-3-methyl-4-(6-methyl-1H-indazol-7-yl)-2-quinolinyl)-2,6-diazaspiro[3.4]octan-2-yl)-2-propen-1-one]: the half-inhibitory concentration (IC50) was 323 nM against KRAS G12C (setting [3]); 1210 nM in experiment [1] (Homo sapiens, MIA PaCa-2, 72 h); greater than 5000 nM in experiment [2] (Homo sapiens, A549, 72 h).
Consider `C=CC(=O)N1CC2(C1)CN(c1nc3cc(OC)ccc3c(-c3c(C)ccc4[nH]ncc34)c1C#N)CC2(F)F` [Example 14-20, 2-(8,8-difluoro-2-(2-propenoyl)-2,6-diazaspiro[3.4]octan-6-yl)-7-methoxy-4-(5-methyl-1H-indazol-4-yl)-3-quinolinecarbonitrile], for which the half-maximal inhibitory concentration (IC50) on KRAS G12C (setting [4]) is 31 nM; in experiment [1] (Homo sapiens, MIA PaCa-2, 72 h), 2550 nM; in experiment [2] (Homo sapiens, A549, 72 h), greater than 5000 nM.
